Experimental data taken from ChEMBL document CHEMBL4420068, “Samhd1 modulation for treating resistance to cancer therapy” (2018).
Values after ≈ are worked out from the molar mass of the structure shown. Active and inactive are the calls of the source. No cut-off for these calls is given here.

Assays:
THP-1 [1] = assay: Ratio of cytotoxic IC50 for human THP1 cells with constitutively expressing high SAMHD1 expression to cytotoxic IC50 for parental human THP1 cells expressing low SAMHD1 expression; type: functional
THP-1 [2] = assay: Ratio of cytotoxic IC50 for human THP1 (+/+) cells expressing wild type SAMHD1 to cytotoxic IC50 for human THP1 cells with CRISP/CAS9 SAMHD1 knockout; type: functional
[3] = target: Deoxynucleoside triphosphate triphosphohydrolase SAMHD1 (Homo sapiens) (UniProt Q9Y3Z3); assay: Substrate activity at SAMHD1 (unknown origin) expressed in bacterial system expressed in bacteria assessed as triphospho-hydolase activity by measuring cytarabine tri-phosphate […]
U-251 = assay: Cytotoxic activity against human U251MG cells assessed as reduction in cell viability incubated for 96 hrs by MTT assay; type: functional, cell-based; settings: U-251, 96 h
HEL = assay: Cytotoxic activity against human HEL cells assessed as reduction in cell viability at 10 to 50 ug/ml in presence of lentiviral protein X- virus-like particles incubated for 96 hrs by MTT assay; type: functional, cell-based
HL-60 = assay: Cytotoxic activity against human HL60 cells assessed as reduction in cell viability at 10 to 50 ug/ml in presence of lentiviral protein X- virus-like particles incubated for 96 hrs by MTT assay; type: functional, cell-based
MOLM-13 = assay: Cytotoxic activity against human MOLM13 cells assessed as reduction in cell viability at 10 to 50 ug/ml in presence of lentiviral protein X- virus-like particles incubated for 96 hrs by MTT assay; type: functional, cell-based

Chain of Deoxynucleoside triphosphate triphosphohydrolase SAMHD1 (Homo sapiens) (Q9Y3Z3 whole entry): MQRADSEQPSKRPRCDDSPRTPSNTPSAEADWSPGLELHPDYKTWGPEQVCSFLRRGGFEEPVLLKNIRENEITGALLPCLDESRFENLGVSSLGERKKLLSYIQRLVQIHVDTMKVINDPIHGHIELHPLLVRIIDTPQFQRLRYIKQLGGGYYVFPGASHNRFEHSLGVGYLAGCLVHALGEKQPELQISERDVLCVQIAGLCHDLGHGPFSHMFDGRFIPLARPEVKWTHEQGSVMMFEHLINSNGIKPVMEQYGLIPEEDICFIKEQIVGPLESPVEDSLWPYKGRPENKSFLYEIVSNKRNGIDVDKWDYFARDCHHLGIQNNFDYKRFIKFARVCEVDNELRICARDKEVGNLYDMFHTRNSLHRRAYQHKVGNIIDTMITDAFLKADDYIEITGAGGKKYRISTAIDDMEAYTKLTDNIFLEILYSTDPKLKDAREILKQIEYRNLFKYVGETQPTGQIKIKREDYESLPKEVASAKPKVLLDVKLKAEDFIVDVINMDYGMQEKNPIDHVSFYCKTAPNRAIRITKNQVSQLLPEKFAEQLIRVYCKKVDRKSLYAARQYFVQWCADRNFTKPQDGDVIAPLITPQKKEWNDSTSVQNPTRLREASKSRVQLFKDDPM

Compound	Ratio IC50 (THP-1 [1])	Ratio IC50 (THP-1 [2])	also measured
Nc1nc(F)nc2c1ncn2[C@@H]1O[C@H](CO)[C@@H](O)[C@@H]1O [FLUDARABINE]	6	–	–
Nc1nc(Cl)nc2c1ncn2[C@H]1C[C@H](O)[C@@H](CO)O1 [CLADRIBINE]	2	1	–
Nc1nc2[nH]cnc2c(=S)[nH]1 [THIOGUANINE]	1	1	Activity [3]: Active
NC(=O)c1ncn([C@@H]2O[C@H](CO)[C@@H](O)[C@H]2O)n1 [RIBAVIRIN]	0.5	0.5	–
Nc1nc(Cl)nc2c1ncn2[C@@H]1O[C@H](CO)[C@@H](O)[C@@H]1F [CLOFARABINE]	11	–	–
Nc1ccn([C@@H]2O[C@H](CO)[C@@H](O)[C@@H]2O)c(=O)n1 [CYTARABINE]	–	–	IC50 (U-251): 0.022 µg/mL (≈ 0.0905 µM); Activity [3]: Active; Activity (HEL): Active; Activity (HL-60): Active; Activity (MOLM-13): Active
Nc1ccn([C@@H]2O[C@H](CO)[C@@H](O)C2(F)F)c(=O)n1 [GEMCITABINE]	0.5	1	–
Nc1ncn([C@H]2C[C@H](O)[C@@H](CO)O2)c(=O)n1 [DECITABINE]	6	9	–
COc1cccc2c1C(=O)c1c(O)c3c(c(O)c1C2=O)C[C@@](O)(C(C)=O)C[C@@H]3O[C@H]1C[C@H](N)[C@H](O)[C@H](C)O1 [DAUNORUBICIN]	1	1	–
COc1nc(N)nc2c1ncn2[C@@H]1O[C@H](CO)[C@@H](O)[C@@H]1O [NELARABINE]	4	–	–
